Structures can show the parent of a compound that is named as a salt. A value given as a limit tells only on which side of the number the result lay.

The values that follow come from patent US4681884A, “Diazine-ethenylphenyl oxamic acids and esters and salts thereof” (Boehringer Ingelheim Pharmaceuticals, Inc., priority 1985, dated 1987).

In one assay the test system is Passive Cutaneous Anaphylaxis. Description: Passive Cutaneous Anaphylaxis (PCA) Assay, in vivo anti-allergic activity. Also noted: species or system rat. The settings on record: 10 mg/kg, p.o.; oral administration 30 minutes before ovalbumin challenge; blued area vs control. Here is the method:
Passive Cutaneous Anaphylaxis (PCA) Assay
Representative compounds of the present invention were tested comparatively with cromoglycate to determine in vivo anti-allergic activity. The anti-allergic properties were ascertained in rats by the Passive Cutaneous Anaphylaxis test (PCA) essentially as described by Goose and Blair, Immunology, 16: 749-760 (1969).
Rat serum was diluted so that skin reactions with diameters between 10 and 15 mm in unsensitized rats were produced. The PCA test was performed in duplicate by injecting 0.1 ml of this antiserum dilution on each side of the shaved back of rats. Rats so treated were injected intravenously (i.v.) twenty-four hours later with 0.02 mg ovalbumin in 0.5 ml of 1% Evans Blue solution within five minutes after intravenous administration or 30 minutes after oral administration of the test compounds. Thirty minutes after the ovalbumin challenge the rats were killed by CO2 -asphyxiation, and the skin was reflected. The diameters, in millimeters, of the blued areas were measured and the mean diameter was determined. The circular area was calculated, and the mean area in square millimeters of the control group was considered as 100%. The results of the compound test groups were expressed as a percentage change from these control values. From dose response curves the dose reducing the size of the blued area by 50% (ED50) was estimated.
Usually % Inhibition stands for the change of the read-out against control, counted positive when it falls. As for `CCOC(=O)C(=O)Nc1cc(C=Cc2ccc(Cl)nn2)cc(NC(=O)C(=O)OCC)c1Cl` [Example 37, Diethyl 2-(6-chloropyridazin-3-yl)ethenyl (4-chlorophenyl)-3,5dioxamate], the “% Inhibition” value is on record as 54%.

The assay is the same for the next values; noted with them: 10 mg/kg, p.o.; repeat test.
Consider `O=C(O)C(=O)Nc1cccc(C=Cc2ccnc(NC(=O)C(=O)O)n2)c1` [Example 29, 2-(2-Carboxycarbonylamino-pyrimidin-4-yl)ethenyl-phenyl-3 oxamic acid tetra-sodium salt di-hydrate], for which the “% Inhibition (repeat)” value was found to be 2%.

The assay is the same for the next values; noted with them: Rattus norvegicus, 0.5 h; 3 mg/kg, i.v.; ovalbumin challenge within five minutes after intravenous administration.
By inhibition in vivo is commonly meant the change of the read-out against control, counted positive when it falls. A lower inhibition in vivo goes with a weak effect. As to `O=C(O)C(=O)Nc1ccc(C=Cc2ccncn2)cc1` [Example 2, 2-(4-Pyrimidinyl)ethenylphenyl-4 oxamic acid ethanolamine salt], at 3 mg/kg the inhibition in vivo was 63%.

The same assay, now with this note: Rattus norvegicus, 0.5 h; 10 mg/kg, p.o.; oral administration 30 minutes before ovalbumin challenge; blued area vs control.
In the case of `CCOC(=O)C(=O)Nc1ccc(C=Cc2nccnc2CC)cc1` [Example 30, Ethyl 2-(3-ethylpyrazin-2-yl)ethenylphenyl-4 oxamate], at 10 mg/kg the inhibition in vivo was 6%.
On to `CCc1nccnc1C=Cc1ccc(NC(=O)C(=O)O)cc1` [Example 31, 2-(3-Ethylpyrazin-2-yl)ethenyl-phenyl-4 oxamic acid ethanolamine salt], for which the inhibition in vivo at 10 mg/kg amounted to 15%.
`CCOC(=O)C(=O)Nc1cccc(C=Cc2cc(NC(=O)C(=O)OCC)nc(C)n2)c1` [Example 26, Ethyl 2-(2-methyl-6-ethoxyoxalyl-aminopyrimidin-4-yl)-ethenylphenyl-3 oxamate hemihydrate]: at 10 mg/kg the inhibition in vivo was 64%.
In turn, `Cc1nc(C=Cc2cccc(NC(=O)C(=O)O)c2)cc(NC(=O)C(=O)O)n1` [Example 27, 2-(2-Methyl-6-carboxycarbonyl-aminopyrimidin-4-yl)-ethenylphenyl-3 oxamic acid di-tromethane salt] yielded an inhibition in vivo at 10 mg/kg of 0%.
Compound `CCOCCOC(=O)C(=O)Nc1ccc(C=Cc2cc(N)nc(C)n2)cc1` [Example 33, Ethoxyethyl 2-(2-methyl-6-aminopyrimidin-4-yl)-ethenylphenyl-4 oxamate hemihydrate] came in with an inhibition in vivo at 10 mg/kg of 52%.
On to `CCOC(=O)C(=O)Nc1ccccc1C=Cc1ccncn1` [Example 6, Ethyl 2-(4-pyrimidinyl)ethenylphenyl-2 oxamate], for which the inhibition in vivo at 10 mg/kg was determined as 20%.
As for `CCOCCOC(=O)C(=O)Nc1ccc(C=Cc2cnccn2)cc1` [Example 32, Ethoxyethyl 2-(2-pyrazinyl)ethenylphenyl-4 oxamate], testing at 10 mg/kg gave an inhibition in vivo of 46%.
Regarding `CCOC(=O)C(=O)Nc1cccc(C=Cc2ccnc(NC(C)=O)n2)c1` [Example 16, Ethyl 2-(2-acetamidopyrimidin-4-yl)ethenylphenyl-3 oxamate], testing at 10 mg/kg gave an inhibition in vivo of 42%.
`CCOC(=O)C(=O)Nc1cc(C=Cc2ccncn2)ccc1OCCN(C)C` [Example 11, Ethyl 2-(4-pyrimidinyl)ethenyl-4-N,N--dimethylaminoethoxyphenyl-3 oxamate] yielded an inhibition in vivo at 10 mg/kg of 9%.
Compound `CCOC(=O)C(=O)Nc1cccc(C=Cc2ccnc(NC(=O)C(=O)OCC)n2)c1` [Example 28, Ethyl 2-(2-ethoxyoxalylamino-pyrimidin-4-yl)ethenyl-phenyl-3 oxamate] gave an inhibition in vivo at 10 mg/kg of 5%.
For `CC(=O)Nc1nccc(C=Cc2cccc(NC(=O)C(=O)O)c2)n1` [Example 17, 2-(2-Acetamidopyrimidin-4-yl)ethenylphenyl-3 oxamic acid tromethane salt], the inhibition in vivo at 10 mg/kg is 37%.
As to `O=C(O)C(=O)Nc1cccc(C=Cc2ccnc(NC(=O)C(=O)O)n2)c1` [Example 29, 2-(2-Carboxycarbonylamino-pyrimidin-4-yl)ethenyl-phenyl-3 oxamic acid tetra-sodium salt di-hydrate], the inhibition in vivo at 10 mg/kg is 67%.
Take `O=C(O)C(=O)Nc1ccc(C=Cc2cccnn2)cc1` [Example 19, 2-(3-Pyridazinyl)ethenylphenyl-4 oxamic acid ethanolamine salt]: the inhibition in vivo at 10 mg/kg is 0%.

The same assay, now with this note: Rattus norvegicus, iv; ovalbumin challenge within five minutes; estimated from dose response curves; read-out: ED50 (dose reducing the size of the blued area by 50%).
By ED50 is commonly meant the midpoint of the dose-response relation. For `Cc1nc(C=Cc2cccc(NC(=O)C(=O)O)c2)cc(NC(=O)C(=O)O)n1` [Example 27, 2-(2-Methyl-6-carboxycarbonyl-aminopyrimidin-4-yl)-ethenylphenyl-3 oxamic acid di-tromethane salt], the median effective dose (ED50) is 0.03 mg/kg.
Regarding `O=C(O)C(=O)Nc1ccc(C=Cc2cnccn2)c(NC(=O)C(=O)O)c1` [Example 35, 2-(2-Pyrazinyl)ethenylphenyl-2,4 dioxamic acid di-ethanolamine salt], the ED50 is 0.53 mg/kg.
On to `O=C(O)C(=O)Nc1ccc(C=Cc2ccncn2)c(NC(=O)C(=O)O)c1` [Example 36, 2-(4-Pyrimidinyl)ethenylphenyl-2,4 dioxamic acid di-ethanolamine salt], for which the ED50 was 0.05 mg/kg.

Still in this assay, the particulars now being: Rattus norvegicus, po; 30 minutes before ovalbumin challenge; estimated from dose response curves; read-out: ED50 (dose reducing the size of the blued area by 50%).
Regarding `CCOC(=O)C(=O)Nc1cccc(C=Cc2ccncn2)c1` [Example 4, Ethyl 2-(4-pyrimidinyl)ethenylphenyl-3 oxamate], the median effective dose (ED50) was 2.8 mg/kg.
Still for that read-out and setting: the same measure for `O=C(O)C(=O)Nc1ccccc1C=Cc1ccncn1` [Example 7, 2-(4-Pyrimidinyl)ethenylphenyl-2 oxamic acid ethanolamine salt]: 8 mg/kg; for `CCOC(=O)C(=O)Nc1ccc(C=Cc2cc(N)nc(C)n2)cc1` [Example 14, Ethyl 2-(2-methyl-6-aminopyrimidin-4-yl)ethenyl phenyl-4 oxamate]: 10 mg/kg.
With `Cc1nc(C=Cc2ccc(NC(=O)C(=O)O)cc2)cc(NC(=O)C(=O)O)n1` [Example 25, 2-(2-Methyl-6-carboxycarbonylaminopyrimidin-4-yl)-ethenylphenyl-4 oxamic acid hydrate diethanolamine salt], the median effective dose (ED50) is 4 mg/kg.
`CCOC(=O)C(=O)Nc1ccc(C=Cc2ccncn2)cc1` [Example 1, Ethyl 2-(4-pyrimidinyl)ethenylphenyl-4 oxamate]: the ED50 was 1.4 mg/kg.
For `CCOC(=O)C(=O)Nc1cccc(C=Cc2cc(NC(=O)C(=O)OCC)nc(C)n2)c1` [Example 26, Ethyl 2-(2-methyl-6-ethoxyoxalyl-aminopyrimidin-4-yl)-ethenylphenyl-3 oxamate hemihydrate], the 50% effective dose (ED50) is less than 10 mg/kg.
For the compound `O=C(O)C(=O)Nc1cccc(C=Cc2cnccn2)c1` [Example 23, 2-(2-Pyrazinyl)ethenylphenyl-3 oxamic acid ethanolamine salt], the ED50 was less than 1 mg/kg.
For the compound `CCOC(=O)C(=O)Nc1ccc(C=Cc2cc(OCC)nc(OCC)n2)cc1` [Example 13, Ethyl 2-(2,6-diethoxypyrimidin-4-yl)ethenylphenyl-4 oxamate], the 50% effective dose (ED50) is 30 mg/kg.
Still for that read-out and setting: the same measure for `CCOC(=O)C(=O)Nc1ccc(C=Cc2ccnc(NC(=O)C(=O)OCC)n2)cc1` [Example 3, Ethyl 2-(2-ethoxyoxalylaminopyrimidin-4-yl)-ethenylphenyl-4 oxamate]: 10 mg/kg; for `O=C(O)C(=O)Nc1ccc(C=Cc2cnccn2)cc1` [Example 21, 2-(2-Pyrazinyl)ethenylphenyl-4 oxamic acid sodium salt]: 10 mg/kg; for `CCOC(=O)C(=O)Nc1ccc(C=Cc2cnccn2)cc1` [Example 20, Ethyl 2-(2-pyrazinyl)ethenylphenyl-4 oxamate]: 4.6 mg/kg.
For the compound `CCOC(=O)C(=O)Nc1ccc(C=Cc2cc(C)ncn2)cc1` [Example 15, Ethyl 2-(6-methylpyrimidin-4-yl)ethenylphenyl-4 oxamate], the median effective dose (ED50) was 1.1 mg/kg.
For `CCOC(=O)C(=O)Nc1ccc(C=Cc2ccncn2)c(NC(=O)C(=O)OCC)c1` [Example 12, Diethyl 2-(4-pyrimidinyl)ethenylphenyl-2,4-dioxamate], the median effective dose (ED50) is 2 mg/kg.
`O=C(O)C(=O)Nc1cccc(C=Cc2ccncn2)c1` [Example 5, 2-(4-Pyrimidinyl)ethenylphenyl-3 oxamic acid ethanolamine salt]: the ED50 was 12.3 mg/kg.
Same read-out and setting: for `CCOC(=O)C(=O)Nc1ccc(C=Cc2ccncn2)c(O)c1` [Example 8, Ethyl 2-(4-pyrimidinyl)ethenyl-2-hydroxyphenyl-4 oxamate] the value was 4.5 mg/kg; for `CCOC(=O)C(=O)Nc1cccc(C=Cc2cnccn2)c1` [Example 22, Ethyl 2-(2-pyrazinyl)ethenylphenyl-3 oxamate], 4 mg/kg.
On the same count and under the same terms, for `CCOC(=O)C(=O)Nc1ccc(C=Cc2cc(NC(=O)C(=O)OCC)nc(C)n2)cc1` [Example 24, Ethyl 2-(2-methyl-6-ethoxyoxalylaminopyrimidin-4-yl)-ethenylphenyl-4 oxamate] the value was 0.3 mg/kg; for `CCOC(=O)C(=O)Nc1ccc(C=Cc2cccnn2)cc1` [Example 18, Ethyl 2-(3-pyridazinyl)ethenylphenyl-4 oxamate], 1 mg/kg.

Still in this assay, the particulars now being: p.o.; 30 minutes before ovalbumin challenge; estimated from dose response curves.
On to “Ethyl 2-(4-pyrimidinyl)ethenyl-6-chlorophenyl-3 oxamate [Example 9]”, for which the “ED50 (dose reducing the size of the blued area by 50%)” value was 2 mg/kg, p.o.
Same read-out and setting: the same measure for `O=C(O)c1cc(=O)c2c(OCC(O)COc3cccc4oc(C(=O)O)cc(=O)c34)cccc2o1` [Cromoglycate]: “Inactive”.

Tested on in another assay: not given
Experiment: not given
To be noted: given orally; cited from earlier work.
With `O=C(O)c1cc(=O)c2c(OCC(O)COc3cccc4oc(C(=O)O)cc(=O)c34)cccc2o1` [Cromoglycate], the “antiallergic activity when given orally” value is “not active”.

Still in this assay, the particulars now being: inhalation as a solid; cited from earlier work.
Regarding `O=C(O)c1cc(=O)c2c(OCC(O)COc3cccc4oc(C(=O)O)cc(=O)c34)cccc2o1` [Cromoglycate], the “bronchodilator when given by inhalation as a solid” value is listed as “effective”.
